Laboratory results: patent US20230219956A1 (BETTA PHARMACEUTICALS CO.,LTD, priority 2019, published 2023)

How the values were obtained:
CALU-1 cells = assay: Cell proliferation assay, CALU-1 cells (Cell-titer Glo); assay type: cell-based; conditions: Homo sapiens, 120 h incubation
Method: The CALU-1 cells were spread on a 96-well ultra-low adsorption plate with 1000 cells and 190 μL/well. After incubating overnight, compound solutions of gradient concentration was prepared, and added 10 μL of DMSO solution of the test compound of each concentration to the cells of each well. The final concentration of the compound is 30000, 10000, 3333.3, 1111.1, 370.4, 123.5, 41.2, 13.7, 4.6, 0 nM (the final concentration of DMSO is 0.25%). Incubated for 120 h at 37° C. and 5% CO2. 60 μL of Cell-titer Glo working solution was added to each well, shaked and mixed, and incubated at room temperature for 10 minutes. The multi-functional microplate reader read the luminescence value, and converted the luminescence value reading into inhibition percentage.
Inhibition percentage=(maximum value−reading)/(maximum value−minimum value)*100.
The “maximum value” was the DMSO control, the “minimum value” indicates the cell-free control group.
Graphpad Prism software was used to perform curve fitting and obtain IC50 value.
The compounds of the examples have good inhibition on CALU-1 cells, and their activity is better than that of ARS-1620. Refer to Table 2 for the IC50 data of some compounds in the examples inhibiting CALU-1 cells.

[1] = Permeability assay, Caco-2 monolayer cell model; assay type: in vitro ADME; conditions: human, Caco-2, compound 5 μM, Verapamil 0 μM; for efflux ratio at 120 min, 5 μM: read-out: RE (Efflux Ratio)
Method: The Caco-2 monolayer cell model was used to determine the bidirectional permeability and efflux rate of the example compounds and the comparative compounds. In the experiment, 50 μL of 6.86×10^5 cells/mL Caco-2 cells (passage 45) were seeded into 96-well cell culture plates, and cultured continuously for 14-18 days for transport experiments. The corresponding compound was administered bidirectionally with or without verapamil (P glycoprotein (P-gp) inhibitor), at a concentration of 5 μM. At 37° C., after incubating with shaking at 150 rpm for 120 minutes, the top and basal samples were collected, and the content of each compound in the samples was determined by liquid chromatography tandem mass spectrometry (LC/MS/MS).
Refer to the Table 4 for permeability data of some compounds in the examples.

H358 cells = assay: Cell proliferation assay, H358 cells (Cell-titer Glo); assay type: cell-based; conditions: Homo sapiens, NCI-H358, 96 h incubation
Method in brief: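 H358 cells, 2000 per well in ultra-low-attachment plates, treated after overnight culture with compound at 10000 to 1.5 nM plus 0 (0.25% DMSO final) for 96 h at 37 °C, 5% CO2. Cell-titer Glo luminescence, normalised to DMSO and cell-free controls; IC50 from curve fit.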

MIA-PACA-2 cells = assay: Cell proliferation assay, MIA-PACA-2 cells (Cell-titer Glo); assay type: cell-based; conditions: Homo sapiens, 96 h incubation
Method in brief: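 MIA-PACA-2 cells, 600 per well in ultra-low-attachment plates, exposed 96 h at 37 °C to compound at 0.025–10000 nM final (0.25% DMSO). Viability by CellTiter-Glo luminescence; inhibition normalised to DMSO and cell-free controls, IC50 from curve fit.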

| Compound | IC50 (CALU-1 cells) [nM] | Papp A→B at 120 min, 5 μM [1] [×10⁻⁶ cm/s] | Papp B→A at 120 min, 5 μM [1] [×10⁻⁶ cm/s] | efflux ratio at 120 min, 5 μM [1] | IC50 (H358 cells) [nM] | IC50 (MIA-PACA-2 cells) [nM] |
| --- | --- | --- | --- | --- | --- | --- |
| C=CC(=O)N1CC2(CCN(c3nc(C4CCOCC4)nc4c(OCC(F)(F)F)c(-c5c(C)ccc6[nH]ncc56)c(C=C)cc34)CC2)C1 [Compound 6, 1-(7-(7-(5-methyl-1H-indazol-4-yl)-2-(tetrahydro-2H-pyran-4-yl)-8-(2,2,2-trifluoroethoxy)-6-vinylquinazolin-4-yl)-2,7-diazaspiro[3.5]nonan-2-yl)prop-2-en-1-one] | 45.7 | – | – | – | – | – |
| C=CC(=O)N1CC2(CCN(c3nc(C4CCN(C)CC4)nc4c(F)c(-c5c(C)ccc6[nH]ncc56)c(C=C)cc34)CC2)C1 [Compound 5, 1-(7-(8-fluoro-7-(5-methyl-1H-indazol-4-yl)-2-(1-methylpiperidin-4-yl)-synthesis of 6-vinylquinazolin-4-yl)-2,7-diazaspiro[3.5]nonan-2-yl)prop-2-en-1-one] | 103 | – | – | – | – | – |
| C=CC(=O)N1CC2(CCN(c3nc(C4CCN(C)CC4)nc4c(OCC(F)(F)F)c(-c5c(C)ccc6[nH]ncc56)c(CC)cc34)CC2)C1 [Compound 4, 1-(7-(6-ethyl-7-(5-methyl-1H-indazol-4-yl)-2-(1-methylpiperidin-4-yl)-8-(2,2,2-trifluoroethoxy)quinazolin-4-yl)-2,7-diazaspiro[3.5]nonan-2-yl)prop-2-en-1-one] | 2.9 | 0.21 | 9.64 | 46.5 | – | – |
| C=CC(=O)N1CC2(CCN(c3nc(C4CCN(C)C4)nc4c(OCC(F)(F)F)c(-c5c(C)ccc6[nH]ncc56)c(C=C)cc34)CC2)C1 (stereo not drawn) [Compound 8] | 4.6 | – | – | – | – | – |
| C=CC(=O)N1CC2(CCN(c3nc(C4CCN(C(C)=O)CC4)nc4c(OCC(F)(F)F)c(-c5c(C)ccc6[nH]ncc56)c(C=C)cc34)CC2)C1 [Example 14, 1-(7-(2-(1-acetylpiperidin-4-yl)-7-(5-methyl-1H-indazol-4-yl)-8-(2,2,2-trifluoroethoxy)-6-vinylquinazolin-4-yl)-2,7-diazaspiro[3.5]nonan-2-yl)prop-2-en-1-one] | – | 1.33 | 5.82 | 4.36 | 6.4 | 40.6 |
| C=CC(=O)N1CC2(CCN(c3nc(C4CCN(C)CC4)nc4c(OCC(F)(F)F)c(-c5cc(F)cc(F)c5)c(C5CC5)cc34)CC2)C1 [Example 20] | – | – | – | – | 4200 | 1320 |
| C=CC(=O)N1CC2(CCN(c3nc(C4CCN(C)CC4)nc4c(OCC(F)(F)F)c(-c5ccnc6[nH]ncc56)c(C5CC5)cc34)CC2)C1 [Example 18] | – | – | – | – | 715 | 177 |
| C=CC(=O)N1CC2(CCN(c3nc(C4CCN(C)CC4)nc4c(OCC(F)(F)F)c(-c5c(C)ccc6[nH]ncc56)c(C=C)cc34)CC2)C1 [Compound 1, 1-(7-(7-(5-methyl-1H-indazol-4-yl)-2-(1 methylpiperidin-4-yl)-8-(2,2,2-trifluoroethoxy)-6-vinylquinazolin-4-yl)-2,7-diazaspiro[3.5]nonan-2-yl)prop-2-en-1-one] | 2.7 | 0.51 | 7.18 | 14.2 | – | – |

Now from value to compound:

| IC50 (CALU-1 cells) [nM] | Papp A→B at 120 min, 5 μM [1] [×10⁻⁶ cm/s] | Papp B→A at 120 min, 5 μM [1] [×10⁻⁶ cm/s] | efflux ratio at 120 min, 5 μM [1] | IC50 (H358 cells) [nM] | IC50 (MIA-PACA-2 cells) [nM] | Compound |
| --- | --- | --- | --- | --- | --- | --- |
| – | 0.06 | 6.75 | 113 | – | – | C=CC(=O)N1CC2(CCN(c3nc(OC4CCN(C5CCOCC5)CC4)nc4c(OCC(F)(F)F)c(-c5c(C)ccc6[nH]ncc56)c(C=C)cc34)CC2)C1 [Compound D1, reference compound] |
| 245 | – | – | – | – | 284 | C=CC(=O)N1CCN(c2ncnc3c(F)c(-c4c(O)cccc4F)c(Cl)cc23)CC1 [ARS-1620, reference compound] |
| – | – | – | – | 37 | 34 | C=CC(=O)N1CC2(CCN(c3nc(C4CN(CC)C4)nc4c(OCC(F)(F)F)c(-c5c(C)ccc6[nH]ncc56)c(CC)cc34)CC2)C1 [Example 46, 1-(7-(6-ethyl-2-(1-ethyl-azacyclobutane-3-yl)-7-(5-methyl-1H-indazole-4-yl)-8-(2,2,2-trifluoroethoxy)quinazolin-4-yl)-2,7-diazarospiro [3.5]nonan-2-yl) propyl-2-en-1-one] |
| – | 0.34 | 10.3 | 30.6 | 4.4 | 2.6 | C=CC(=O)N1CC2(CCN(c3nc(C4CCN(C5CCOCC5)CC4)nc4c(OCC(F)(F)F)c(-c5c(C)ccc6[nH]ncc56)c(C=C)cc34)CC2)C1 [Example 58, 1-(7-(7-(5-methyl-1H-indazole-4-yl)-2-(1-(tetrahydro-2H-pyran-4-yl)piperidin-4-yl)-8-(2,2,2-trifluoroethoxy)-6-vinylquinazolin-4-yl)-2,7-diazspiro [3.5]nonan-2-yl) propyl-2-en-1-one] |
| – | – | – | – | 466 | 778 | C=CC(=O)N1CC2(CCN(c3nc(C4CN(C(=O)C5CC5)C4)nc4c(OCC(F)(F)F)c(-c5c(C)ccc6[nH]ncc56)c(CC)cc34)CC2)C1 [Example 45, 1-(7-(2-(1-(Cyclopropanecarbonyl)azacyclobutane-3-yl)-6-ethyl-7-(5-methyl-1H-indazol-4-yl)-8-(2,2,2-trifluoroethoxy)quinazolin-4-yl)-2,7-diazaspo [3.5]nonan-2-yl) propyl-2-en-1-one] |
| – | – | – | – | 15.5 | 13.7 | C=CC(=O)N1CC2(CCN(c3nc(C4CCN(CC(=O)C(C)(C)C)CC4)nc4c(OCC(F)(F)F)c(-c5c(C)ccc6[nH]ncc56)c(C=C)cc34)CC2)C1 [Example 70, 1-(4-(4-(2-acryloyl-2,7-diazspiro [3.5]nonan-7-yl)-7-(5-methyl-1H-indazole-4-yl)-8-(2,2,2-trifluoroethoxy)-6-vinylquinazolin-2-yl)piperidin-1-yl)-3,3-dimethylbutane-2-one] |
